Tests used:
A549 cells = assay: Cell viability (neutral red); assay type: cell-based, Human; conditions: A549; 0.1 μM, 72 h
Text: (§1) Human colon cancer HT29 cells, colon-derived normal fibroblast CCD-18Co cells, lung cancer A549 cells, normal human bronchial epithelial (immortalized with adenovirus 12-SV40 virus hybrid Ad12SV40) BEAS-2B cells, breast cancer MDA-MB-231 cells, normal breast epithelial MCF10A cells, human osteosarcoma U-2OS cells were purchased from ATCC (Manassas, VA, United States). […] All subjects gave written informed consent in accordance with the Declaration of Helsinki. Cells were maintained in medium supplemented with 10% v/v fetal bovine serum, 1% v/v penicillin-streptomycin, 1% v/v L-glutamine. Morphological analysis was performed with a bright field microscope (Leica Microsystems, Wetzlar, Germany). At least 5 fields/experimental condition were examined.
(§2) LDH activity was measured in the extracellular medium and in the cell lysate: 50 μl of extracellular medium or 5 μl of cell lysate were incubated at 37°C with 5 mM NADH. The reaction was started by adding 20 mM pyruvic acid and was monitored for 6 min, measuring absorbance at 340 nm using a Synergy HT Multi-Detection Microplate Reader (Bio-Tek Instruments, Winoosky, MT, United States). […] Both intracellular and extracellular enzyme activities were expressed as μmol NADH oxidized/min/dish. The results were expressed as percentage of extracellular LDH versus total (intracellular plus extracellular) LDH. […] The absorbance of untreated cells was considered as 100% viability; the results were expressed as percentage of viable cells versus untreated cells. IC50 was calculated with the CompuSyn software^1.

BEAS-2B cells = assay: Cell viability (neutral red); assay type: cell-based, Human; conditions: BEAS-2B; 0.1 μM, 72 h
Text: as §1, §2

C[P+](c1ccccc1)(c1ccccc1)c1ccccc1.[Cl-] [TPMP, methyltriphenylphosphonium chloride, reference compound]
cell viability (A549 cells): did not reduce viability
cell viability (BEAS-2B cells): did not reduce viability
